Source: patent US20200367506A1, “RARE EARTH DEPENDENT PLANT PROBIOTIC COMPOSITIONS AND METHODS OF USE” (BOARD OF TRUSTEES OF MICHIGAN STATE UNIVERSITY, priority 2017, published 2020)

Columns and labels:
[1] = tested on: M. extorquens mxaF mutant strain; assay: REE/La^3+-dependent methanol growth of mxaF mutant strain; assay type: cell-based
Description: FIGS. 5A-5B show REE-dependent methylotrophy.
There is a direct link between REEs commonly used in fertilizers, such as La, Ce^3+, Pr^3+, and Nd^3+, and growth of M. extorquens using methanol as carbon source (FIG. 5A). […] Alternatively, it is possible that the remaining lanthanides are not transported into the cell. Detailed biochemical analyses are required to distinguish between these two possibilities.
The concentrations of exogenous La^3+ that would support La^3+-dependent methanol growth were assessed using methanol medium supplemented with La^3+ concentrations ranging from 0-20 μM (FIG. 5B). The mxaF mutant strain was used to eliminate any contribution by the Ca^2+-dependent methanol dehydrogenase MxaFI.

M. extorquens = assay: Illumina-based transcriptome analysis (RNA-seq) of cells grown with and without REE; assay type: cell-based; conditions: La^3+ vs without REE
Description: To identify mechanisms by which M. extorquens can sense and acquire REE, as well as to support REE-dependent methanol growth, Illumina-based transcriptome analyses (RNA-seq) was performed. Comparison of cells grown in liquid culture with and without REE addition allowed us to identify changes that may be relevant in planta.
It is intriguing to speculate that the reason why Fdh4 activity has never been detected is because it may require REEs. Frc12 and Oxr are enzymes of the oxalyl-CoA pathway (OXC). This pathway is known to produce glyoxylate when M. extorquens is grown with oxalate as a carbon source.

[La+3] [La^3+, lanthanum] was tested, and the “Final OD600” value ([1]; 1 μM La^3+) was 1.6, the “La^3+ concentration resulting in maximal growth rate” value ([1]; methanol medium) was 1 µM and the “Lowest La^3+ concentration at which La^3+-dependent methanol growth was observed” value ([1]; poor growth) was 2.5 nM. The “Upregulation of Zn-containing alcohol dehydrogenase Zn-ADH” value (M. extorquens) was 4.8 fold, the “Upregulation of an ABC transporter” value (M. extorquens) was 6.3 fold and the “Upregulation of formate dehydrogenase Fdh4” value (M. extorquens) was 4 fold. For the same molecule, the “Upregulation of formyl-CoA transferase Frc12” value (M. extorquens) was 3 fold, the “Upregulation of oxalyl-CoA (Oxr)” value (M. extorquens) was 2.5 fold and the “Upregulation of putative alcohol dehydrogenase quinoprotein ExaF” value (M. extorquens) was 3.4 fold. The “Upregulation of the PQQ synthesis pathway” value (M. extorquens) was 10 fold and the “Upregulation of methanol dehydrogenase genes XoxF1 and XoxF2” value (M. extorquens; methanol growth) was 10 fold.
